Data reported in ChEMBL document CHEMBL5608195, “Identification and biological evaluation of fused tetrahydroisoquinoline derivatives as Wnt/β-catenin signaling inhibitors to suppress colorectal cancer” (Eur J Med Chem, 2024).
Active and inactive are the calls of the source. The rule behind the calls is not given here.

Columns and labels:
HCT-116 [1] = experiment: Antitumor activity against human HCT-116 cells xenografted in male BALB/c mouse assessed as tumor growth inhibition at 10 mg/kg, ip measured every two days for upto 20 days relative to control; format: functional; conditions: HCT-116, 480 h, time <= 20 day, read-out: TGI
[2] = Toxicity in Kunming mouse assessed as behavioural changes at 200 to 400 mg/kg, ip; format: organism-based; conditions: in vivo, dose 200-400 mg/kg
HCT-116 [3] = experiment: Induction of cell cycle arrest in human HCT-116 cells assessed as downregulation of CDK1 protein level by Western blot analysis; format: functional, cell-based
HCT-116 [4] = experiment: Induction of cell cycle arrest in human HCT-116 cells assessed as downregulation of Cyclin D1 protein level by Western blot analysis; format: functional, cell-based
[5] = Bioavailability in male ICR (CD-1) mouse at 10 mg/kg, ip measured upto 24 hrs by LC-MS/MS analysis; format: ADME, organism-based; conditions: in vivo
HCT-116 [6] = experiment: Antitumor activity against human HCT-116 cells xenografted in male BALB/c mouse assessed as tumor growth inhibition at 40 mg/kg, ip measured every two days for upto 20 days relative to control; format: functional; conditions: HCT-116, 480 h, time <= 20 day, read-out: TGI
[7] = Toxicity in Kunming mouse assessed as drug tolerance at 200 to 400 mg/kg, ip; format: organism-based; conditions: in vivo, dose 200-400 mg/kg
RKO [8] = experiment: Induction of cell cycle arrest in human RKO cells assessed as accumulation of cells at G2/M phase incubated for 24 hrs by PI staining based flow cytometry; format: functional; conditions: dose 6-10 µM
HCT-116 [9] = experiment: Antitumor activity against human HCT-116 cells xenografted in male BALB/c mouse assessed as decrease in Ki-67 protein level at 10 to 40 mg/kg, ip by Immunohistochemical staining based analysis; format: functional, organism-based; conditions: dose 10-40 mg/kg
RKO [10] = experiment: Induction of cell cycle arrest in human RKO cells assessed as downregulation of c-Myc protein level by Western blot analysis; format: functional, cell-based
[11] = Toxicity in male BALB/c mouse xenografted with human HCT-116 cells assessed as effect on serum creatinine level at 10 to 40 mg/kg, ip by biochemical analysis; format: organism-based; conditions: in vivo, dose 10-40 mg/kg
[12] = Half life in male ICR (CD-1) mouse at 10 mg/kg, ip measured upto 24 hrs by LC-MS/MS analysis; format: ADME, organism-based; conditions: in vivo
HCT-116 [13] = experiment: Antitumor activity against human HCT-116 cells xenografted in male BALB/c mouse assessed as induction of apoptosis by measuring increase cleaved-caspase-3 protein level at 10 to 40 mg/kg, ip by Immunohistochemical staining based analysis; format: functional, organism-based; conditions: dose 10-40 mg/kg
HCT-116 [14] = experiment: Induction of cell cycle arrest in human HCT-116 cells assessed as downregulation of Cyclin A2 protein level by Western blot analysis; format: functional, cell-based
[15] = molecular target: Heat shock protein HSP90 (Homo sapiens) (UniProt P07900+P08238); experiment: Induction of thermal stabilization of Hsp90 in human HCT-116 cells at 37 to 82 degree C at 100 uM incubated for 1 hr by thermal shift assay; format: cell-based
[16] = Toxicity in male BALB/c mouse xenografted with human HCT-116 cells assessed as effect on serum uric acid level at 10 to 40 mg/kg, ip by biochemical analysis; format: organism-based; conditions: in vivo, dose 10-40 mg/kg
[17] = Toxicity in male BALB/c mouse xenografted with human HCT-116 cells assessed as histological change in kidney at 10 to 40 mg/kg, ip by H and E staining based optical microscopic analysis; format: organism-based; conditions: in vivo, dose 10-40 mg/kg
HCT-116 [18] = experiment: Antiproliferative activity against human HCT-116 cells assessed as inhibition of DNA proliferation at 10 uM incubated for 22 hrs by fluorescence based microscopic analysis; format: functional, cell-based
HCT-116 [19] = experiment: Antiproliferative activity against human HCT-116 cells assessed as inhibition of DNA replication at 10 uM incubated for 22 hrs by fluorescence based microscopic analysis; format: functional, cell-based
RKO [20] = experiment: Inhibition of colony formation human RKO cells incubated for 24 hrs by crystal violet staining based analysis; format: functional, cell-based; conditions: dose 6-10 µM
HCT-116 [21] = experiment: Induction of cell cycle arrest in human HCT-116 cells assessed as upregulation of P21 protein level by Western blot analysis; format: functional, cell-based
[22] = Tmax in male ICR (CD-1) mouse at 10 mg/kg, ip measured upto 24 hrs by LC-MS/MS analysis; format: ADME, organism-based; conditions: in vivo
[23] = Toxicity in male BALB/c mouse xenografted with human HCT-116 cells assessed as histological change in liver at 10 to 40 mg/kg, ip by H and E staining based optical microscopic analysis; format: organism-based; conditions: in vivo, dose 10-40 mg/kg
[24] = AUC (0 to infinity) in male ICR (CD-1) mouse at 10 mg/kg, ip measured upto 24 hrs by LC-MS/MS analysis; format: ADME, organism-based; conditions: in vivo
HCT-116 [25] = experiment: Inhibition of Wnt/beta-catenin signaling pathway in human HCT-116 cells assessed as downregulation of beta-catenin expression incubated for 24 hrs by qRT-PCR analysis; format: cell-based; conditions: dose <= 10.0 µM
[26] = Toxicity in male BALB/c mouse xenografted with human HCT-116 cells assessed as effect on serum urea level at 10 to 40 mg/kg, ip by biochemical analysis; format: organism-based; conditions: in vivo, dose 10-40 mg/kg
[27] = Toxicity in male BALB/c mouse xenografted with human HCT-116 cells assessed as histological change in heart at 10 to 40 mg/kg, ip by H and E staining based optical microscopic analysis; format: organism-based; conditions: in vivo, dose 10-40 mg/kg
HCT-116 [28] = experiment: Induction of cell cycle arrest in human HCT-116 cells assessed as accumulation of cells at G2/M phase incubated for 24 hrs by PI staining based flow cytometry; format: functional; conditions: dose 6-10 µM
RKO [29] = experiment: Inhibition of Wnt/beta-catenin signaling pathway in human RKO cells assessed as induction of beta-catenin degradation pretreated with cycloheximide followed by compound addition by Western blot analysis; format: cell-based; conditions: time <= 6.0 hrs, TDE = time-dependent effect

bioavailability [5]: 97% | half-life [12]: 3.55 h | Activity [15]: Active | Tmax [22]: 0.25 h | AUC(0-inf) [24]: 2900 ng·h/mL
SMILES: CC12c3ccc(Cl)cc3CCN1CCc1c2[nH]c2ccc(Cl)cc12 (centres undefined)
inhibition in vivo at 10 mg/kg (HCT-116 [1]): 57.4% | Activity [2]: Non-Toxic | Activity (HCT-116 [3]): Dose-Dependent Effect | Activity (HCT-116 [4]): Dose-Dependent Effect | inhibition in vivo at 40 mg/kg (HCT-116 [6]): 71.6% | Activity [7]: Non-Toxic | Activity (RKO [8]): Dose-Dependent Effect | Activity (HCT-116 [9]): Active | Activity (RKO [10]): Dose-Dependent Effect | Activity [11]: Non-Toxic | Activity (HCT-116 [13]): Active | Activity (HCT-116 [14]): Dose-Dependent Effect | Activity [16]: Non-Toxic | Activity [17]: Non-Toxic | Activity (HCT-116 [18]): Active | Activity (HCT-116 [19]): Active | inhibition (RKO [20]): Dose-Dependent Effect | Activity (HCT-116 [21]): Dose-Dependent Effect | Activity [23]: Non-Toxic | inhibition (HCT-116 [25]): Dose-Dependent Effect | Activity [26]: Non-Toxic | Activity [27]: Non-Toxic | Activity (HCT-116 [28]): Dose-Dependent Effect | inhibition (RKO [29]): Tde
